The values below come from patent US20060069132A1, “Azolecarboxamide herbicides” (priority 2004, published 2006).

The structures appear in SMILES notation.

Common to all, as to test: Test C postemergence herbicide test
One test concerns chickweed. It counts as in vivo, Stellaria media. As to conditions: for Chickweed plant response rating: 500 g ai/ha. How it is done:
At the same time, plants selected from these crop and weed species and also winter barley (Hordeum vulgare L.), blackgrass (Alopecurus myosuroides Huds.), canarygrass (Phalaris minor Retz.), chickweed (Stellaria media (L.) Vill.), downy bromegrass (Bromus tectorum L.), green foxtail (Setaria viridis (L.) Beauv.), Italian ryegrass (Lolium multiflorum Lam.), wheat (Triticum aestivum L.), wild oat (Avenafatua L.) and windgrass (Apera spica-venti (L.) Beauv.) were treated with postemergence applications of some of the test chemicals formulated in the same manner. Plants ranged in height from 2 to 18 cm (1- to 4-leaf stage) for postemergence treatments. Plant species in the flooded paddy test consisted of rice (Oryza sativa), smallflower umbrella sedge (Cyperus difformis L.), ducksalad (Heteranthera limosa (Sw.) Willd.) and barnyardgrass (Echinochloa crus-galli (L.) Beauv.) grown to the 2-leaf stage for testing. Treated plants and controls were maintained in a greenhouse for 12 to 14 days, after which time all species were compared to controls and visually evaluated. Plant response ratings, summarized in Table C, are based on a scale of 0 to 100 where 0 is no effect and 100 is complete control. A dash (-) response means no test result.

The subject of another test is winter barley. The class given is in vivo, Hordeum vulgare. Summed up:
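Postemergence sprays applied to plants 2 to 18 cm tall (1- to 4-leaf stage); paddy species grown to 2-leaf stage under flooding. After 12 to 14 days in greenhouse, visual rating versus untreated controls on 0–100 scale (0 no effect, 100 complete control).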

The next test relates to canarygrass. The class given is in vivo, Phalaris minor. Summed up: (§1)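 Ratings (0 = no effect, 100 = complete control) come from visual comparison with untreated plants after 12 to 14 days in the greenhouse. Treatment was postemergence at the 1- to 4-leaf stage (2–18 cm), or at the 2-leaf stage for the flooded paddy barnyardgrass.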
The next test concerns blackgrass. The class given is in vivo, Alopecurus myosuroides. Summed up:
as §1

The mark [1] stands for this setting: Postemergence, 250 g ai/ha, scale 0 to 100, 0 no effect, 100 complete control.
The mark [2] stands for this setting: postemergence, 125 g ai/ha, scale 0 to 100.
[3] abbreviates: postemergence, 62 g ai/ha, scale 0 to 100.
The mark [4] stands for this setting: Postemergence, 125 g ai/ha, scale 0 to 100, 0 no effect, 100 complete control.
The mark [5] stands for this setting: postemergence, 31 g ai/ha, scale 0 to 100.
Setting [6] is: postemergence, 62 g ai/ha, scale 0 to 100 (0 no effect, 100 complete control).
The mark [7] stands for this setting: Postemergence, 500 g ai/ha, scale 0 to 100.
The mark [8] stands for this setting: Postemergence, 500 g ai/ha, scale 0 to 100, 0 no effect, 100 complete control.
Where [9] appears, read: Postemergence, 250 g ai/ha, scale 0 to 100.

As to `CCn1nc(C(C)(C)C)cc1C(=O)Nc1cccc(C(=O)OCCF)c1` [Compound 82, 2-fluoroethyl 3-[[[3-(1,1-dimethylethyl)-1-ethyl-1H-pyrazol-5-yl]-carbonyl]amino]benzoate], the “Chickweed plant response rating” value with chickweed (Postemergence, scale 0 to 100) is listed as 100. The “Plant response rating, Chickweed” value in the test with chickweed (setting [1]) is 100; in the test on chickweed (setting [2]) it was 95; with chickweed (setting [3]), 70.
In the case of `CCOC(=O)c1cccc(NC(=O)c2cc(C3(C)CC3)nn2CC)c1` [Compound 295], the “Plant response rating, Barley, Winter” value with winter barley (setting [4]), with winter barley (setting [1]), in the test on winter barley (setting [5]) and in the test on winter barley (setting [6]) was 35 each time. Further, the “Plant response rating, Canarygrass” value came to 35 in the test on canarygrass (setting [1]), 35 in the test with canarygrass (setting [2]), 25 with canarygrass (setting [5]) and 30 in the test on canarygrass (setting [3]). The “Plant response rating, Blackgrass” value with blackgrass (setting [1]) is given as 65; with blackgrass (setting [2]), 65; in the test on blackgrass (setting [5]), 45; in the test with blackgrass (setting [3]), 45. Moreover, the “Plant response rating, Chickweed” value in the test with chickweed (setting [1]) is given as 100; in the test on chickweed (setting [2]) it was 100; in the test with chickweed (setting [5]) it was 85; with chickweed (setting [3]) it was 100.
Take `CCn1nc(C(C)(C)C)cc1C(=O)Nc1cccc(C(=O)NC2CC2)c1` [Compound 44]: the “Plant response rating, Chickweed” value with chickweed (setting [4]), with chickweed (setting [1]) and with chickweed (setting [3]) was 90 each time.
Take `C#CCNC(=O)c1cccc(NC(=O)c2cc(C(C)(C)C)nn2CC)n1` [Compound 147]: the “Chickweed plant response rating” value in the test with chickweed (Postemergence, scale 0 to 100) worked out at 100. For the same compound, the “Plant response rating, Chickweed” value came out at 90 with chickweed (setting [1]), 30 with chickweed (setting [2]) and 5 with chickweed (setting [3]).
Take `CCNC(=O)c1cccc(NC(=O)c2cc(C(C)(C)C)nn2CC(F)(F)F)c1` [Compound 31]: the “Plant response rating, Chickweed” value in the test with chickweed (setting [4]) amounted to 90; in the test on chickweed (setting [1]) it was 100; in the test with chickweed (setting [3]), 90.
In the case of `C=CCNC(=O)c1cccc(NC(=O)c2cc(C(C)(C)C)nn2C)n1` [Compound 318], the “Chickweed plant response rating” value in the test with chickweed (Postemergence, scale 0 to 100) came out at 80. The “Plant response rating, Chickweed” value is listed as 10 in the test with chickweed (setting [1]), 0 with chickweed (setting [2]) and 0 in the test with chickweed (setting [3]).
Consider `CCn1nc(C(C)(C)C)cc1C(=O)Nc1cccc(OS(=O)(=O)CC)c1` [Compound 408], for which the “Barley, Winter plant response rating” value with winter barley (setting [7]) stood at 40. The results for the “Plant response rating, Barley, Winter” value in the test on winter barley (setting [4]), in the test on winter barley (setting [1]) and in the test on winter barley (setting [6]) were 30, 35 and 30, respectively. In addition, the “Plant response rating, Canarygrass” value was determined as 40 in the test on canarygrass (setting [1]), 45 with canarygrass (setting [8]), 30 in the test on canarygrass (setting [2]) and 20 with canarygrass (setting [3]). Further, the “Blackgrass plant response rating” value in the test with blackgrass (setting [7]) was 70. Further, the “Plant response rating, Blackgrass” value with blackgrass (setting [1]) stood at 65; with blackgrass (setting [2]), 50; in the test on blackgrass (setting [3]) it was 40.
`CCOC(=O)c1cccc(NC(=O)c2cc(C(C)(C)C)nn2CC)c1` [Compound 80, ethyl 3-[[[3-(1,1-dimethylethyl)-1-ethyl-1H-pyrazol-5-yl]carbonyl]-amino]benzoate]: the “Plant response rating, Chickweed” value amounted to 100 with chickweed (setting [1]), 100 in the test with chickweed (setting [2]), 90 with chickweed (setting [5]) and 100 in the test on chickweed (setting [3]).
As for `CCCCOc1cccc(NC(=O)c2cc(C(C)(C)C)nn2CC)c1` [Compound 137], the “Barley, Winter plant response rating” value in the test on winter barley (setting [7]) worked out at 30. The “Plant response rating, Barley, Winter” value with winter barley (setting [4]) came to 20; in the test on winter barley (setting [1]), 20; in the test with winter barley (setting [6]), 10. Moreover, the “Canarygrass plant response rating” value in the test with canarygrass (setting [7]) is 40. Further, the figures for the “Plant response rating, Canarygrass” value with canarygrass (setting [1]), in the test with canarygrass (setting [2]) and in the test on canarygrass (setting [3]) were 40, 30 and 20, respectively. For the same compound, the “Blackgrass plant response rating” value with blackgrass (setting [7]) was 60. Moreover, the “Plant response rating, Blackgrass” value in the test on blackgrass (setting [1]), in the test with blackgrass (setting [2]) and in the test on blackgrass (setting [3]) was 40 throughout.
`CCn1nc(C(C)(C)C)cc1C(=O)Nc1cccc(C(=O)NCC2CC2)c1` [Compound 62]: the “Plant response rating, Barley, Winter” value in the test on winter barley (setting [4]) stood at 10; in the test with winter barley (setting [5]), 0; with winter barley (setting [6]) it was 10. Further, the “Barley, Winter plant response rating” value in the test with winter barley (setting [9]) is reported as 10. The “Plant response rating, Canarygrass” value in the test on canarygrass (setting [1]) amounted to 40; in the test on canarygrass (setting [2]) it was 30; in the test with canarygrass (setting [5]) it was 0; in the test with canarygrass (setting [3]), 0. The “Blackgrass plant response rating” value in the test with blackgrass (setting [9]) amounted to 40. Besides, the figures for the “Plant response rating, Blackgrass” value with blackgrass (setting [2]), with blackgrass (setting [5]) and in the test with blackgrass (setting [3]) were 40, 20 and 40, respectively.
As to `CCn1nc(C(C)(C)C)cc1C(=O)Nc1cc(OC(F)(F)F)ccc1F` [Compound 338], in the test on winter barley (setting [7]), the “Barley, Winter plant response rating” value was found to be 40. Moreover, the “Plant response rating, Barley, Winter” value with winter barley (setting [4]) was 30; in the test with winter barley (setting [1]), 35; in the test on winter barley (setting [6]) it was 20. Further, the “Plant response rating, Canarygrass” value with canarygrass (setting [1]) came out at 40; with canarygrass (setting [8]), 50; with canarygrass (setting [2]) it was 25; in the test with canarygrass (setting [3]), 20. Moreover, the “Blackgrass plant response rating” value in the test on blackgrass (setting [7]) is 65. For the same compound, the “Plant response rating, Blackgrass” value was 50 in the test with blackgrass (setting [1]), 45 with blackgrass (setting [2]) and 40 with blackgrass (setting [3]).
For `CCn1nc(C2(C)CC2)cc1C(=O)Nc1cc(C(=O)N2CC=CC2)ccc1F` [Compound 301], the “Barley, Winter plant response rating” value with winter barley (setting [7]) is listed as 40. Also, the “Plant response rating, Barley, Winter” value in the test on winter barley (setting [4]), in the test on winter barley (setting [1]) and in the test on winter barley (setting [6]) was 30 in each case. In addition, in the test on canarygrass (setting [7]), the “Canarygrass plant response rating” value is 50. The results for the “Plant response rating, Canarygrass” value with canarygrass (setting [1]), with canarygrass (setting [2]) and in the test with canarygrass (setting [3]) were 50, 45 and 35, respectively. Moreover, the “Blackgrass plant response rating” value with blackgrass (setting [7]) amounted to 45. Further, the “Plant response rating, Blackgrass” value in the test on blackgrass (setting [1]) was 90; in the test with blackgrass (setting [2]), 75; with blackgrass (setting [3]), 55.
For the compound `C=Cn1nc(C(C)(C)C)cc1C(=O)Nc1cccc(C(=O)N(CC)CC)c1` [Compound 34], the “Chickweed plant response rating” value in the test on chickweed (Postemergence, scale 0 to 100) was 100. The “Plant response rating, Chickweed” value in the test on chickweed (setting [4]) amounted to 50; in the test on chickweed (setting [1]), 60.
As to `CCc1nc(C(C)(C)C)sc1C(=O)Nc1cccc(C(=O)NCC2CC2)c1` [Compound 212], the “Chickweed plant response rating” value in the test with chickweed (Postemergence, scale 0 to 100) came to 100. Besides, the “Plant response rating, Chickweed” value is 80 with chickweed (setting [1]), 80 in the test on chickweed (setting [2]) and 60 in the test with chickweed (setting [3]).
As for `CCNC(=O)c1cccc(NC(=O)c2cc(C(C)(C)C)nn2CCF)c1` [Compound 35], the “Plant response rating, Chickweed” value in the test with chickweed (setting [4]) stood at 90; in the test with chickweed (postemergence, 16 g ai/ha, scale 0 to 100) it was 70; with chickweed (setting [5]), 70; with chickweed (setting [3]), 80.
